Data as given in patent US11109591B2, “Single phase liquids of alkanolamine salts of dicamba” (Taminco BVBA, priority 2017, dated 2021).

Experiments:
Type in all cases: physicochemical
[1] = Storage in closed containers at ambient conditions for several months, visual phase check; conditions: 20-25 C, atmospheric pressure
Description: Behaviors inconsistent with a single phase liquid include liquid/liquid separation of layers, or liquid/solid striation, in each case noticeable as such to the unaided eye. […] The single phase liquid need not necessarily be a true solution in the physical sense but will appear to be a single phase to the unaided eye as described above.
The amine-herbicide formulations prepared in Examples 1, 2, 3, and 4 were stored in closed containers at ambient conditions (room temperature varying from 20-25 C, atmospheric pressure) for several months.

[2] = 2 mL samples spotted onto glass plates, left uncovered at ambient conditions for approximately two months; conditions: 2 mL on glass plate, 20°-25° C.
Description: To evaluate the herbicidal compositions under more stringent conditions, we increased their surface area and exposed them to ambient conditions at room temperature, atmospheric pressure, and uncovered over an extended period of time: 2 mL samples of the five liquefied combinations were spotted onto glass plates and left uncovered at ambient conditions (temperatures within a range of 20°-25° C.) for approximately two months.

[3] = Density of max-load solutions at ambient temperature
[4] = Maximum loading of herbicide amine salt in water (HCl titration of amine, Karl-Fischer water); conditions: glufosinate amine salts in water
Description: F is a factor that takes into account the amount of base or acid groups on the amine or acid, respectively.

SMILES	physical state after storage (visual presence of salt solids) [1]	physical state after open exposure on glass plate [2]	density of max-load solution [3] [g/mL]	Max Load amine [4] [g/L]	Max Load g ae/L [4] [g ae/L]
CN(C)Cc1ccccc1.O=C(O)COc1ccc(Cl)cc1Cl [BDMA/2,4-D]	formed single phase liquids	turned into a crystallized mass	1.25	–	–
COc1c(Cl)ccc(Cl)c1C(=O)O [MMEA/dicamba]	formed single phase liquids	remained liquefied	1.31	–	–
CP(=O)(O)CCC(N)C(=O)O.N (centres unmarked) [NH3/glufosinate]	–	–	–	1340	1339
CCCCN(CCCC)CCCC.O=C(O)COc1ccc(Cl)cc1Cl [TNBA/2,4-D]	formed single phase liquids	turned into a crystallized mass	1.1	–	–
